Data taken from publication PMC10630888, “Nuclear ERK1/2 signaling potentiation enhances neuroprotection and cognition via Importinα1/KPNA2” (EMBO Molecular Medicine, 2023).
“And” between values parts separate entries of the source, which are not always exact repeats. Equal entries are not always repeated.

What was measured:
Assay type in all cases: in vivo, mouse
[1] = test system: S6 (Ser235/236) phosphorylation; assay: Striatal pS6 (Ser235/236) immunofluorescence 1 h after single injection; settings: single injection 20 mg/kg i.p., individual mice
Method: (§1) Immunofluorescence was performed as described in Papale et al ([2016]). Briefly, 1 h after blocking in 5% normal goat serum, slices were incubated overnight at 4°C with the following primary antibodies: anti‐phospho (Ser10)‐acetylated (Lys14) histone H3 (1:1,000, Millipore), anti‐phospho‐S6 ribosomal protein (Ser235/236) (1:200, Cell Signaling Technology) anti‐phospho‐S6 ribosomal protein (Ser240/244) (1:200, Cell Signaling), cleaved caspase‐3 (1:200, Cell Signaling Technology), anti‐mutant Huntingtin (1:100, Developmental Studies Hybridoma Bank, University of Iowa, #MW8), and NeuN (1:1,000, Millipore). Corresponding secondary antibodies (Alexa Fluor 546 conjugated anti‐mouse (1:200, Thermo Fisher Scientific), Alexa Fluor 488 conjugated anti‐rabbit (1:500, Thermo Fisher Scientific) and Pacific Blue goat anti‐mouse (1:200, Thermo Fisher Scientific) were incubated at room temperature for 1 h. Sections stained for mutant Huntingtin were incubated with DAPI for 20 min. Sections were subsequently mounted with fluorescent mounting medium (DAKO). Single and double‐labeled images ([…]) were obtained at 40× magnification from the striatum using a laser scanning confocal microscope (Leica SP2) equipped with the corresponding lasers and appropriate filter sets to avoid the crosstalk between the fluorochromes.
(§2) In ex‐vivo and in‐vivo immunofluorescence experiments, the number of p‐S6 or p‐AcH3 immunoreactive neurons among NeuN‐positive neurons was counted in 2–3 consecutive striatal sections per mouse in four fields per section. Caspase 3‐positive cells were quantified among NeuN‐positive neurons in each slide and expressed as percentage (ratio between caspase‐3‐positive cells and total NeuN‐positive neurons) for each field acquired through the slide. The number of cells showing mutant Huntingtin inclusions were expressed as a percentage of mutant Huntingtin‐positive cells among DAPI‐positive cells.

[2] = test system: cleaved caspase-3; assay: Cleaved caspase-3 in striatum of HdhQ111/+ mice treated with RB5; settings: for cleaved caspase-3 in striatum (Fig 5 panel c): individual animals
Method: as §1, §2

[3] = test system: NOR memory; assay: Novel object recognition test (NOR); settings: mice, single systemic administration, 20 mg/kg i.p.
Method: NOR was performed as previously described (d'Isa et al, [2014]). Briefly, the test was performed in an open square box placed in a quiet room with dim light. The objects used were parallelepipeds in metal and glass vials filled with water. The protocol required 3 days and it was performed as follows.
Day 1: mice were individually placed in the empty arena for 5 min to familiarize with it and to measure their anxiety (thigmotaxis trial). The percentage of thigmotaxis is calculated as the time spent in the peripheral zone out of the total time spent in the arena (300 s.). Animals showing a thigmotaxis > 90% are discarded from the sample because considered biased for anxiety. Day 2: mice were placed into the arena for 10 min, where they were allowed to explore two identical objects (training trial). The amount of time spent by mice exploring each object was scored. […] Times of exploration for the familiar object and for the novel object were recorded. The discrimination index (D.I.), defined as the difference between the exploration time for the novel object and the one for the familiar object, divided by total exploration time, was calculated. The sessions were recorded with the video tracking software SMART (Panlab, Barcelona, Spain). […]

[4] = test system: mutant huntingtin (mHtt); assay: Mutant huntingtin inclusions in striatum of zQ175 females after RB5; settings: RB5 for 9 days
Method: Immunofluorescence was performed as described in Papale et al ([2016]). Briefly, 1 h after blocking in 5% normal goat serum, slices were incubated overnight at 4°C with the following primary antibodies: anti‐phospho (Ser10)‐acetylated (Lys14) histone H3 (1:1,000, Millipore), anti‐phospho‐S6 ribosomal protein (Ser235/236) (1:200, Cell Signaling Technology) anti‐phospho‐S6 ribosomal protein (Ser240/244) (1:200, Cell Signaling), cleaved caspase‐3 (1:200, Cell Signaling Technology), anti‐mutant Huntingtin (1:100, Developmental Studies Hybridoma Bank, University of Iowa, #MW8), and NeuN (1:1,000, Millipore). […]
as §2, with “cells. […]” for “cells.”

GRKKRRQRRRPPQGGGGGEPRRTEGVGPGVPGEVEMVKGQPFDV [RB5, six D-amino acids, acetylated N-terminus]
pS6 (Ser235/236) positive neurons in striatum ([1]; ERK1+/+ (WT) mice): comparable in both genotypes
pS6 (Ser235/236) positive neurons in striatum ([1]; ERK1-/- mice): comparable in both genotypes
pS6 (Ser235/236) positive neurons in striatum ([1]; 1 h): slightly reduced
Striatal neuronal degeneration (cleaved caspase-3) ([2]; 10 month-old HdhQ111/+ mice, 20 mg/kg i.p. for 8 days): attenuated striatal neuronal degeneration
cleaved caspase-3 in striatum (Fig 5 panel c) ([2]; HdhQ111/+ mice): 2.0154 and 1.547 and 0.5041 and 1.332 and 1.4192
cleaved caspase-3 in striatum (Fig 5 panel c) ([2]; WT mice): 1.055 and 1.796 and 1.192 and 0.7349 and 0.4238
Persistence of NOR memory [3]: over 120 h
mHtt aggregation in striatum [4]: insufficient to attenuate the mHtt aggregation
